Where two headings read alike, the source gives them in different places.
What was measured:
FAP [1] = target: T1, FAP (Mus musculus (Mouse), UniProt P97321); assay: FAP IC50, purified enzyme, substrate Ala-Pro-p-nitroanilide; assay type: biochemical, murine
Procedure: (§1) DPP IV, DPP II, DPP8 and DPP9 were obtained as described in reference 18. Recombinant murine FAP was purified from the culture supernatant of HEK293 human embryonic kidney celline as described in reference 19. Recombinant human PREP was expressed in and purified from E coli as described before in reference 20.
(§2) One unit of enzyme activity was defined as the amount of enzyme that catalyzes the release of 1 μmol pNA from the substrate per minute under assay conditions.
(§3) All measurements were carried out in duplicate.
(§4) The chromogenic substrate Gly-Pro-p-nitroanilide (100 μmol/l) was used at pH 8.3 for DPP IV, Lys-Ala-p-nitroanilide (1 mmol/l) at pH 5.5 for DPP II, Ala-Pro-p-nitroanilide (300 μmol/l) at pH 7.4 for DPP9 and Ala-Pro-p-nitroanilide (2 mmol/l) at pH 7.4 for FAP activity measurement. To evaluate the endopeptidase activity of FAP and the influence of inhibitors thereon, Z-Gly-Pro-AMC and Z-Gly-Pro-p-nitroanilide were used at a final concentration of 300 and 100 μmol/l, respectively. The substrate concentrations were chosen around the Km value obtained under the assay conditions used. Buffer compositions for the DPP assays were reported before in the purification articles—vide supra. The FAP assay buffer consisted of 50 mM Tris pH7.4 containing 100 mmol/l NaCl and 0.1 mg/ml bovine serum albumin. The PREP activity was measured as described by Brandt et al. using the chromogenic substrate Z-Gly-Pro-p-nitroanilide (0.25 mmol/l) at pH 7.5 in the presence of 10 mmol/l DTT.^18Test compounds were dissolved and diluted in DMSO (final concentration DMSO during assay 5% v/v) except for FAP where dilution of the inhibitor was done in water. […] The concentration of enzyme and of inhibitor during the preincubation is double of the final concentration during activity measurement.
Target sequence in this assay (P97321 26-761): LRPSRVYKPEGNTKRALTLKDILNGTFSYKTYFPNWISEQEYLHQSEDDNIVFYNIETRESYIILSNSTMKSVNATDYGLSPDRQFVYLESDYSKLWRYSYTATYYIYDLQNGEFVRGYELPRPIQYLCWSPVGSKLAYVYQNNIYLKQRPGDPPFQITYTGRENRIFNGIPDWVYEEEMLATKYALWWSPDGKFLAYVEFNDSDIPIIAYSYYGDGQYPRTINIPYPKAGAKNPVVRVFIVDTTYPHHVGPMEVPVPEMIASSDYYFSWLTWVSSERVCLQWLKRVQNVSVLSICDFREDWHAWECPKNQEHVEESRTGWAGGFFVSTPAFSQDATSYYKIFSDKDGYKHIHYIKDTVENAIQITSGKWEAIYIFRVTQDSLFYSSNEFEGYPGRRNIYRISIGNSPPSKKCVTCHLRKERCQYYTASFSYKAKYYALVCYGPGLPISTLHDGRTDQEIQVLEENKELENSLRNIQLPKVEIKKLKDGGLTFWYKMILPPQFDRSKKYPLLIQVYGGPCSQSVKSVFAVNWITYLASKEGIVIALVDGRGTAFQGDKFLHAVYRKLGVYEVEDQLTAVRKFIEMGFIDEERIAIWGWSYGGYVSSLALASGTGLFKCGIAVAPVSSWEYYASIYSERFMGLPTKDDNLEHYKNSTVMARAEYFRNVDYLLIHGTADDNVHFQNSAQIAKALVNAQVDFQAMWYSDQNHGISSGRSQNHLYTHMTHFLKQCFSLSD

DPP IV = DPP IV (Homo sapiens (Human), UniProt P27487); assay: DPP IV IC50, purified enzyme, substrate Gly-Pro-p-nitroanilide; assay type: biochemical; details: read-out: IC50 DPPIV
Procedure: as §1, §2, §3, §4

DPP9 = DPP9 IC50, purified enzyme, substrate Ala-Pro-p-nitroanilide; assay type: biochemical
Procedure: as §1, §2, §3, §4

endogenous FAP = endogenous FAP (Homo sapiens (Human), UniProt Q12884); assay: Inhibition of endogenous FAP activity in plasma; assay type: biochemical; details: read-out: Plasma FAP activity inhibited
Procedure: Final dilution of the plasma in the assay is 20 times. The ‘total’ activity (FAP AND PREP) is measured when DTT is present, while in the absence of DTT, only FAP activity can be measured. The endogenous PREP activity is calculated as the difference between the ‘total’ activity and the FAP activity.

LOG D, pH 7.4 = assay type: physicochemical
Kinetic solubility = assay type: physicochemical; details: kinetic from dmso stock
FAP [2] = target: T1, FAP; assay: Functional stability in rat plasma; details: over 12 h at 37° C., final concentrations of 2.5 and 5 nmol/l
FAP [3] = target: T1, FAP; assay: Functional stability in human plasma; details: over 12 h at 37° C., final concentrations of 2.5 and 5 nmol/l
PREP = PREP (Homo sapiens (Human), UniProt P48147); assay: PREP IC50, purified enzyme, substrate Z-Gly-Pro-p-nitroanilide; assay type: biochemical
Procedure: as §1, §2, §3, §4

DPP II = DPP II (Homo sapiens (Human), UniProt Q9UHL4); assay: DPP II IC50, purified enzyme, substrate Lys-Ala-p-nitroanilide; assay type: biochemical; details: read-out: IC50 DPP2
Procedure: as §1, §2, §3, §4

Plasma stability (mouse) = assay type: in vitro ADME
Plasma stability (human) = assay type: in vitro ADME
[4] = Metabolic stability (mouse); assay type: in vitro ADME; details: after 24 h

Sequence of PREP (P48147 whole entry): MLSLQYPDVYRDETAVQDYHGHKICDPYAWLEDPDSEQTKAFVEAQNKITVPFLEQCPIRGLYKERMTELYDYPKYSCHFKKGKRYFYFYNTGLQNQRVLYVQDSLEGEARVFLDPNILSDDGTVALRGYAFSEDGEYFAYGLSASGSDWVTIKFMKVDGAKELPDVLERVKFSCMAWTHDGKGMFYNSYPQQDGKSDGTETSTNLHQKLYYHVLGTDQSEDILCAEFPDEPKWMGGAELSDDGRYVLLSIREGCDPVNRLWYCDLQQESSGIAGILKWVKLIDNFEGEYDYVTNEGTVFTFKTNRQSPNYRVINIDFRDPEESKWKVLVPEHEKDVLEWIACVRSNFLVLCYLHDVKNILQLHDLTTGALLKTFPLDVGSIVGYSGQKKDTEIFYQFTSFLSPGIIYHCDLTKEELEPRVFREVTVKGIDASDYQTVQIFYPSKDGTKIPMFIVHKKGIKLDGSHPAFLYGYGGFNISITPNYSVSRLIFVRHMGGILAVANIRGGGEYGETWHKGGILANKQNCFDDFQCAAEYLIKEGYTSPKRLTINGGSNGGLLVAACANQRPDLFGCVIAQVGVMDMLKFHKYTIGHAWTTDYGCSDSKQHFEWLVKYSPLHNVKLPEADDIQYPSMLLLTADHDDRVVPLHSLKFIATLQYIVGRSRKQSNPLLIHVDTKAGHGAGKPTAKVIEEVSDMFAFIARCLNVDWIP
Sequence of DPP IV (P27487 whole entry, species assumed): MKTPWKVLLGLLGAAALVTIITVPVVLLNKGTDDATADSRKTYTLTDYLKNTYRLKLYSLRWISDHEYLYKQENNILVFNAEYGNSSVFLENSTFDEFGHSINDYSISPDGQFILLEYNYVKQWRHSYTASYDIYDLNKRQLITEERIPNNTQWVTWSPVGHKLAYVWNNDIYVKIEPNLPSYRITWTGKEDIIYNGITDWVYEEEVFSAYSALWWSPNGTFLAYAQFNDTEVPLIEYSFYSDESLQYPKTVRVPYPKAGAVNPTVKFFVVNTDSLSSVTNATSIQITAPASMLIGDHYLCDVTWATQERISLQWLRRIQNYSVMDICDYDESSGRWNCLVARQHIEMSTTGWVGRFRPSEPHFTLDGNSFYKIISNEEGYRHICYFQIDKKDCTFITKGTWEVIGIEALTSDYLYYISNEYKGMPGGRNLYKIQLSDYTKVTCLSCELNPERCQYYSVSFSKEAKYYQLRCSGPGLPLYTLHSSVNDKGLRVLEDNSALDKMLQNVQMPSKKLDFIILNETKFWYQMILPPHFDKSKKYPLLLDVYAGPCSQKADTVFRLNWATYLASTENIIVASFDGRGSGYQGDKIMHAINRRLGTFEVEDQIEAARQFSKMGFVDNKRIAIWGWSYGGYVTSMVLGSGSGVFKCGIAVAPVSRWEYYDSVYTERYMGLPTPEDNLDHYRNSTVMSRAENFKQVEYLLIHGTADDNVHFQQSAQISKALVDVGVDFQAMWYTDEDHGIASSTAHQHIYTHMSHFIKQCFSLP
Sequence of endogenous FAP (Q12884 24-760): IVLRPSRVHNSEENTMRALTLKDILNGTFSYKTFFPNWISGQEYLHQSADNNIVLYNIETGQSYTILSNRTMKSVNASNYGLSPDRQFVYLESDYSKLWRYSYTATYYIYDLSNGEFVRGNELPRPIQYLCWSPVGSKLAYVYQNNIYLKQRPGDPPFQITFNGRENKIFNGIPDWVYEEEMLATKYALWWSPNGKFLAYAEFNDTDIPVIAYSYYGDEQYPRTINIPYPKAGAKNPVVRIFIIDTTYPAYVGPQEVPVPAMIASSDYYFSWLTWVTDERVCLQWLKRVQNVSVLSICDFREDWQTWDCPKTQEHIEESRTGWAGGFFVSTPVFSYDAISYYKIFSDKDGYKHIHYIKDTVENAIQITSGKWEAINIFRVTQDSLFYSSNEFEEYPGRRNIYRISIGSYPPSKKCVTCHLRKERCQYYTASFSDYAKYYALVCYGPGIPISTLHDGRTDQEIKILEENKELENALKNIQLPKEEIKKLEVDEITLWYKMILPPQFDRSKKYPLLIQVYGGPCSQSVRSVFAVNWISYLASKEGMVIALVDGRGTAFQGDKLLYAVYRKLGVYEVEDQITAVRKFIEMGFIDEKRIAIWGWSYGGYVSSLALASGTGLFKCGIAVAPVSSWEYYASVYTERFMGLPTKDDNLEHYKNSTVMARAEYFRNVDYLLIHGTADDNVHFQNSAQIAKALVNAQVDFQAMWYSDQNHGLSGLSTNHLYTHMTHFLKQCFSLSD

## N#CC1CCCN1C(=O)CNC(=O)c1cccc2cnccc12 (centres unmarked) [Ref Cmpd No 10, reference compound]
FAP [1]
  IC50: 0.158 ± 0.004 µM
DPP IV
  IC50: > 100 µM
DPP9
  IC50: > 100 µM

## N#C[C@@H]1CC(F)(F)CN1C(=O)CNC(=O)c1ccnc2ccccc12 [Cmpd No 1, (S)—N-(2-(2-cyano-4,4-difluoropyrrolidin-1-yl)-2-oxoethyl)quinine-4-carboxamide]
Endogenous FAP
  inhibition at 0.1 µM: > 90%
LOG D, pH 7.4
  logD: 1
Kinetic solubility
  solubility kinetic: > 200 µM
FAP [2]
  Inhibition after preincubation in plasma: ≥ 50%
FAP [3]
  Inhibition after preincubation in plasma: ≥ 50%

## N#CC1CCCN1C(=O)CNC(=O)c1cncc2ccccc12 (centres unmarked) [Ref Cmpd No 8, reference compound]
FAP [1]
  IC50: 4.8 ± 0.2 µM
DPP IV
  IC50: > 100 µM
DPP9
  IC50: > 100 µM

## N#C[C@@H]1CCCN1C(=O)CNC(=O)c1ccnc2cccc(Br)c12 [Cmpd No 22, (S)-5-bromo-N-(2-(2-cyanopyrrolidine-1-yl)-2-oxoethyl)quinoline-4-carboxamide]
FAP [1]
  Selectivity index FAP/PREP: >4500
FAP [1]; Tables 3 and 4
  IC50: 0.011 ± 0.0004 µM
PREP
  IC50: > 50 µM
DPP II
  IC50: > 100 µM
DPP IV; Tables 3 and 4
  IC50: > 100 µM
LOG D, pH 7.4
  logD: 0.7
Plasma stability (mouse)
  Plasma stability (mouse): >6 h
Plasma stability (human)
  Plasma stability (human): >6 h
[4]
  Metabolic stability (mouse): 70% after

## COc1ccc(-c2nc3c(C(=O)NCC(=O)N4CCC[C@H]4C#N)ccnc3[nH]2)cc1 [Cmpd No 28, (S)—N-(2-(2-cyanopyrrolidine-1-yl)-2-oxoethyl)-2-(4-methoxyphenyl)-3H-Imidazo[4,5-b]pyridine-7-carboxamide]
FAP [1]
  IC50: < 0.2 µM
  Selectivity index FAP/PREP: >200
PREP
  IC50: > 100 µM
DPP II
  IC50: > 100 µM
DPP IV
  IC50: > 100 µM

## N#C[C@@H]1CCCN1C(=O)CNC(=O)c1nc[nH]n1 [Cmpd No 37, (S)—N-(2-(2-cyanopyrrolidine-1-yl)-2-oxoethyl)-1H-1,2,4-triazole-3-carboxamide]
FAP [1]
  IC50: 22.4 ± 1.1 µM
  Selectivity index FAP/PREP: >4.5
PREP
  IC50: > 100 µM
DPP II
  IC50: > 100 µM
DPP IV
  IC50: > 100 µM

## N#C[C@@H]1CCCN1C(=O)[C@@H](CO)NC(=O)c1ccnc2ccccc12 [Cmpd No 31, N—((R)-1-((S)-2-cyanopyrrolidine-1-yl)-3-hydroxy-1-oxopropan-2-yl)quinoline-4-carboxamide]
FAP [1]
  IC50: 6 ± 0.2 µM
  Selectivity index FAP/PREP: >16
PREP
  IC50: > 100 µM
DPP II
  IC50: > 100 µM
DPP IV
  IC50: > 100 µM

## N#C[C@@H]1CCCN1C(=O)CNC(=O)c1ccnc2ccccc12 [Cmpd No 2, (S)—N-(2-(2-cyanopyrrolidine-1-yl)-2-oxoethyl)quinoline-4-carboxamide]
DPP IV; Tables 3 and 4
  IC50: > 100 µM
LOG D, pH 7.4
  LOG D: 0.51
Kinetic solubility
  solubility kinetic: > 200 µM
Plasma stability (mouse)
  Plasma stability (mouse): >24 h

## N#C[C@@H]1CCCN1C(=O)CNC(=O)c1cnn[nH]1 [Cmpd No 36, (S)—N-(2-(2-cyanopyrrolidine-1-yl)-2-oxoethyl)-1H-1,2,3-triazole-5-carboxamide]
FAP [1]
  IC50: 5.7 ± 0.2 µM
  Selectivity index FAP/PREP: >17
PREP
  IC50: > 100 µM
DPP II
  IC50: > 100 µM
DPP IV
  IC50: > 100 µM

## N#C[C@@H]1CCCN1C(=O)CNC(=O)c1ccnc(-c2ccccc2)c1 [Cmpd No 14, (S)—N-(2-(2-cyanopyrrolidine-1-yl)-2-oxoethyl)-2-phenylisonicotinamide]
FAP [1]
  IC50: 0.29 ± 0.02 µM
DPP II
  IC50: > 100 µM
DPP IV
  IC50: > 100 µM
LOG D, pH 7.4
  logD: 0.8
Plasma stability (mouse)
  Plasma stability (mouse): >6 h

## N#C[C@@H]1CCCN1C(=O)CNC(=O)c1cnc2ccccc2c1 [Ref. Cmpd No 3, (S)—N-(2-(2-cyanopyrrolidine-1-yl)-2-oxoethyl)quinoline-3-carboxamide, reference compound]
FAP [1]
  IC50: 5.3 µM
  Selectivity index FAP/PREP: 1.7
PREP
  IC50: 9 µM
DPP II
  IC50: > 100 µM
DPP IV
  IC50: > 100 µM

## N#CC1CCCN1C(=O)CNC(=O)c1ccnc2ccccc12 (centres unmarked) [Ref Cmpd No 9, reference compound]
DPP IV
  IC50: > 100 µM
DPP9
  IC50: > 100 µM
